Laboratory results reported in patent US9006444B2, “Phenyl carboxamide-containing spleen tyrosine kinase (SYK) inhibitors” (Merck Sharp & Dohme Corp., priority 2011, dated 2015).
Like-named read-outs stand apart in the source and are kept apart here.

What was measured:
[1] = molecular target: T1, recombinant human GST-SYK (Homo sapiens, UniProt P43405); experiment: Homogeneous Time-Resolved Fluorescence (HTRF) Assay for the Recombinant Human Syk Enzyme; type: biochemical; conditions: GST-hSYK 5 pM, ATP 25 μM, 10-dose titration
T1 construct: purchased Carna Biosciences 08-176
Experimental: Homogeneous Time-Resolved Fluorescence (HTRF) Assay for the Recombinant Human Syk Enzyme
A recombinant GST-hSYK fusion protein was used to measure potency of compounds to inhibit human Syk activity. […] Final volume of the reaction was 10 μL. Phosphorylation of the peptide was allowed to proceed for 45′ at room temperature. To quench the reaction and detect the phosphorylated product, 2 nM of a Europium-anti-phosphotyrosine antibody (Perkin Elmer #AD0161) and 70 nM SA-APC (Perkin-Elmer #CR130-100) were added together in 15 mM Tris pH 7.5, 40 mM EDTA, 0.01% tween 20. Final volume of the quenching solution was 10 μl. The resulting HTRF signal was measured after 30 minutes on an EnVision (Perkin-Elmer) reader using a time-resolved fluorescence protocol.

[2] = tested on: PGD2; conditions: intranasal, phase I/II study, allergic rhinitis; cited from earlier work
[3] = phase II clinical trial, allergic rhinitis; cited from earlier work

Compound | IC50 ([1]; read-out: rhSYK Activity) [nM] | further results
COc1cccc(Nc2cc(N[C@@H]3CCCC[C@@H]3N)ccc2C(N)=O)n1 (relative stereo) [Example 1.2, rel-4-{[(1R,2S)-2-aminocyclohexyl]amino}-2-[(6-methoxypyridin-2-yl)amino]benzamide] | 1.5 to 15 | –
NC(=O)c1ccc(N[C@@H]2CCCC[C@@H]2N)cc1Nc1cccc(-n2cccn2)n1 (relative stereo) [Example 1.3, rel-4-{[(1R,2S)-2-aminocyclohexyl]amino}-2-{[6-(1H-pyrazol-1-yl)pyridin-2-yl]amino}benzamide] | 1.5 to 15 | –
Cc1nc(Nc2cc(N[C@@H]3CCCC[C@@H]3N)ccc2C(N)=O)ccc1F (relative stereo) [Example 1.4, rel-4-{[(1R,2S)-2-aminocyclohexyl]amino}-2-[(5-fluoro-6-methylpyridin-2-yl)amino]benzamide] | 15 to 50 | IC50 ([1]; read-out: IC50): 23 nM
NC(=O)c1ccc(N[C@@H]2CCCC[C@@H]2N)cc1Nc1cccc(N2CCOCC2)n1 (relative stereo) [Example 1.5, rel-4-{[(1R,2S)-2-aminocyclohexyl]amino}-2-[(6-morpholin-4-ylpyridin-2-yl)amino]benzamide] | 15 to 50 | –
CCOc1cccc(Nc2cc(N[C@@H]3CCCC[C@@H]3N)ccc2C(N)=O)n1 (relative stereo) [Example 1.6, rel-4-{[(1R,2S)-2-aminocyclohexyl]amino}-2-[(6-ethoxypyridin-2-yl)amino]benzamide] | 1.5 to 15 | –
NC(=O)c1ccc(N[C@@H]2CCCC[C@@H]2N)cc1Nc1cccc(-c2ccccc2)n1 (relative stereo) [Example 1.7, rel-4-{[(1R,2S)-2-aminocyclohexyl]amino}-2-[(6-phenylpyridin-2-yl)amino]benzamide] | < 1.5 | –
NC(=O)c1ccc(N[C@@H]2CCCC[C@@H]2N)cc1Nc1cccc(-c2ccncc2)n1 (relative stereo) [Example 1.8, rel-4-{[(1R,2S)-2-aminocyclohexyl]amino}-2-(2,4′-bipyridin-6-ylamino)benzamide] | < 1.5 | –
COc1cccc(-c2cccc(Nc3cc(N[C@@H]4CCCC[C@@H]4N)ccc3C(N)=O)n2)c1 (relative stereo) [Example 1.9, rel-4-{[(1R,2S)-2-aminocyclohexyl]amino}-2-{[6-(3-methoxyphenyl)pyridin-2-yl]amino}benzamide] | < 1.5 | IC50 ([1]; read-out: IC50): 1.3 nM
Cn1cc(-c2cccc(Nc3cc(N[C@@H]4CCCC[C@@H]4N)ccc3C(N)=O)n2)cn1 (relative stereo) [Example 1.10, rel-4-{[(1R,2S)-2-aminocyclohexyl]amino}-2-{[6-(1-methyl-1H-pyrazol-4-yl)pyridin-2-yl]amino}benzamide] | 1.5 to 15 | IC50 ([1]; read-out: IC50): 2 nM
NC(=O)c1ccc(N[C@@H]2CCCC[C@@H]2N)cc1Nc1cccc(-c2cccc(F)c2)n1 (relative stereo) [Example 1.11, rel-4-{[(1R,2S)-2-aminocyclohexyl]amino}-2-{[6-(3-fluorophenyl)pyridin-2-yl]amino}benzamide] | < 1.5 | –
COc1ccccc1-c1cccc(Nc2cc(N[C@@H]3CCCC[C@@H]3N)ccc2C(N)=O)n1 (relative stereo) [Example 1.12, rel-4-{[(1R,2S)-2-aminocyclohexyl]amino}-2-{[6-(2-methoxyphenyl)pyridin-2-yl]amino}benzamide] | < 1.5 | –
COc1ccc(-c2cccc(Nc3cc(N[C@@H]4CCCC[C@@H]4N)ccc3C(N)=O)n2)cc1 (relative stereo) [Example 1.13, rel-4-{[(1R,2S)-2-aminocyclohexyl]amino}-2-{[6-(4-methoxyphenyl)pyridin-2-yl]amino}benzamide] | < 1.5 | –
NC(=O)c1ccc(N[C@@H]2CCCC[C@@H]2N)cc1Nc1cccc(-c2ccc(F)cc2)n1 (relative stereo) [Example 1.14, rel-4-{[(1R,2S)-2-aminocyclohexyl]amino}-2-{[6-(4-fluorophenyl)pyridin-2-yl]amino}benzamide] | 1.5 to 15 | –
NC(=O)c1ccc(N[C@@H]2CCCC[C@@H]2N)cc1Nc1ccc2ccccc2n1 (relative stereo) [Example 1.15, rel-4-{[(1R,2S)-2-aminocyclohexyl]amino}-2-(quinolin-2-ylamino)benzamide] | 1.5 to 15 | –
NC(=O)c1ccc(N[C@@H]2CCCC[C@@H]2N)cc1Nc1cccc(-c2ccc(F)c(F)c2)n1 (relative stereo) [Example 1.16, rel-4-{[(1R,2S)-2-aminocyclohexyl]amino}-2-{[6-(3,4-difluorophenyl)pyridin-2-yl]amino}benzamide] | 1.5 to 15 | IC50 ([1]; read-out: IC50): 1.6 nM
NC(=O)c1ccc(N[C@@H]2CCCC[C@@H]2N)cc1Nc1cccc(-n2cccc2)n1 (relative stereo) [Example 1.17, rel-4-{[(1R,2S)-2-aminocyclohexyl]amino}-2-{[6-(1H-pyrrol-1-yl)pyridin-2-yl]amino}benzamide] | < 1.5 | –
Cc1cccc(Nc2cc(N[C@@H]3CCCC[C@@H]3N)ccc2C(N)=O)n1 (relative stereo) [Example 2, rel-4-{[(1R,2S)-2-aminocyclohexyl]amino}-2-[(6-methylpyridin-2-yl)amino]benzamide] | 15 to 50 | –
Oc1cccc(Nc2ncc(F)c(Nc3cccc(O)c3)n2)c1 [Example R112] | – | change in PGD2 [2]: statistically significant decrease; clinical safety [2]: safe across a range of indicators; efficacy versus placebo [3]: lack of efficacy versus placebo
